{"source": "patent US11000555B2", "about": "“Method for preparing a limax compound and therapeutic use thereof” (GUANGXI JIUFU BIOTECHNOLOGY CO., LTD, priority 2017, dated 2021)", "key": {"[1]": {"tested_on": "mice", "experiment": "Inducing the mice to sleep by a subthreshold dose of pentobarbital sodium", "type": "in vivo, Kunming mice", "conditions": "Estazolam 2 mg/kg; pentobarbital sodium 30 mg/kg ip; n = 20", "description": "Eighty Kunming mice, half males and half females, were fasted for 12 h but free to drink water. The mice were randomly divided into four groups: a blank control group, a low does Compound group (0.4 g/kg, ig), a high dose Compound group (0.8 g/kg, ig) and a positive drug control group (Estazolam, 2 mg/kg). each group of mice was administered according to the above doses (ig), and the blank control group was given the same volume of normal saline. Forty-five minutes later, each mouse was given (ip) 30 mg/kg pentobarbital sodium, and the number of mice falling asleep within 15 min was recorded by taking the absence of righting reflex more than 1 min as the indicator of falling asleep."}, "[2]": {"tested_on": "mice", "experiment": "Mouse spontaneous activity test", "type": "in vivo, Kunming mice", "description": "Forty Kunming mice, half males and half females, were fasted for 12 h but free to drink water. The mice were randomly divided into four groups: a blank control group, a low does Compound group (0.4 g/kg, ig), a high dose Compound group (0.8 g/kg, ig) and a positive drug control group (Estazolam, 2 mg/kg). The mice were placed into the YLS-1A multifunctional recorder for spontaneous activities of small animals. After 5 minutes of adaptation, the number of the mice's spontaneous activities before administration were recorded, and the recording lasted for 10 minutes. The room was kept quiet during recording, at a room temperature of 20-24° C. After this, each group of mice was administered according to the above doses, and the number of spontaneous activities within 10 min were recorded 45 min later. The blank control group was given the same volume of normal saline (ig)."}, "[3]": {"tested_on": "rats", "experiment": "Physical dependence test: induced withdrawal test for the rats", "conditions": "morphine hydrochloride sc twice a day, increasing 5 to 60 mg/kg, 7 days; naloxone 5 mg/kg ip day 8", "description": "The compound group was administered (ig) twice a day according to the dose increasing principle, at daily doses of 0.5, 1.0, 1.5, 2.0, 2.5, 3.0 g/kg. The dose was increased every day from 0.5 g/kg to 3.0 g/kg on day 6 which was adopted the same on day 7. The negative control group was given (ig) the same volume of vegetable oil per day at the same time and for the same times as the compound group. On day 8, the rats in each group were given naloxone (5 mg/kg, ip) to induce withdrawal, and the withdrawal status of the rats within 30 min and the weight change one hour before and after the inducement were observed. The evaluation criteria of withdrawal symptoms of rats were established by referring to the Tomoji Yanagita evaluation criteria and our pre-experimental results (see Appendix Table 17). The withdrawal scores and weight loss values of each group of rats were statistically processed. Weight loss value=weight before inducement−weight after inducement."}, "[4]": {"tested_on": "mice", "experiment": "Physical dependence test: induced withdrawal test for the mice", "conditions": "morphine hydrochloride sc twice a day, increasing 25 to 150 mg/kg daily, 7 days, naloxone 8 mg/kg ip", "description": "The daily doses were 25, 50, 75, 100, 125, 150 mg/kg according to the dose increasing principle, increased day by day, reached 150 mg/kg on day 6 which was adopted the same on day 7. The compound group was administered (ig) twice daily (8:00 am, 8:00 pm) at daily doses of 0.6, 1.2, 1.8, 2.4, 3.0, 3.6 g/kg. The dose increased every day from 0.6 g/kg to 3.6 g/kg on day 6 which was adopted the same on day 7. The negative control group was given (ig) the same volume of vegetable oil every day at the same time and for the same times as the compound group. On day 7, naloxone (8 mg/kg, ip) was given to each group of mice to induce withdrawal. The jump reaction within 30 min and weight change one hour before and after inducement were observed. Weight loss value=weight before inducement−weight after inducement."}, "[5]": {"tested_on": "morphine-induced place preference of mice", "experiment": "Conditioned place preference of morphine-induced mice", "type": "in vivo, Kunming mice", "description": "The mice were acclimatized for 3 days, the natural place preference time of the mice was measured before the administration, so that the mice with obvious preference on one cuboid of the experimental box were excluded to clear the effect of unconditional place preference on the results. […] The observation was conducted under sound insulation conditions. […] Thus, the white cuboid was used as the non-preferred side (i.e., the companion box).\nAfter 6 consecutive days of training and administration, the mice developed conditioned place preference.\nEach group was administered for 3 consecutive days."}, "[6]": {"tested_on": "mice", "experiment": "Hot plate test of analgesic effect", "type": "in vivo, Kunming mice", "conditions": "hot plate 55° C.; for Pain threshold: methadone 20 mg/kg, cut-off 60 seconds", "description": "Kunming mice, female, were selected. And a selection among them was conducted prior to the test. The hot plate was adjusted to 55° C.±0.5° C., the female mice were placed on the hot plate, and the duration (in seconds) required from placing the mice on the hot plate until the mice licked their feet as the normal pain threshold of the mice. All those who licked their feet within 5 s or after 30 s and jumped were abandoned. Forty qualified mice were selected and randomly divided into 4 groups: a blank control group, a low dose Compound group, a high dose Compound group, and a positive control group, 10 mice per group. The normal pain threshold of each mouse was measured repeatedly, and the average of two measurements was taken as the pre-administration pain threshold of the mouse. Each group was then administered (at doses and by delivery routes as above), 0.2 ml per 10 g body weight. The pain threshold of each group was measured 60 min and 120 min after administration. If a mouse remained unresponsive for more than 60 seconds on the hot plate, its pain threshold was calculated as 60 seconds."}, "[7]": {"tested_on": "morphine-dependent mice", "experiment": "Therapeutic effect on naloxone-induced withdrawal symptoms of morphine-dependent mice", "type": "in vivo, Kunming mice", "conditions": "methadone 20 mg/kg ig", "description": "The model of morphine-dependent mice was replicated by the dose-increasing method. […] Group (1) was a blank control group, injected subcutaneously (sc) with normal saline (0.2 ml/10 g), and groups (2)˜(5) were used to replicate the model of morphine-dependent mice by the dose-increasing method.\nThe administration continued for 3 days for each group. Mice were free to drink and eat. Naloxone (8.0 mg/kg, ip) was given 1 h after administrations on d1 and d3 during the treatment to induce withdrawal symptoms, and jumping reaction in 30 min and body weights before and after the inducement were observed."}, "[8]": {"tested_on": "mice", "experiment": "Acetic acid writhing test of mice", "type": "in vivo, Kunming mice", "conditions": "methadone 20 mg/kg, delivery route im; 0.6% acetic acid ip; in 20 min", "description": "Forty Kunming mice, male, were fasted for 12 h before the experiment but free to drink water. They were randomly divided into 4 groups: a blank control group, a low dose Compound group, a high dose Compound group, and a positive control group. […] The mice were administered (ig) at a low dose (0.4 g/kg) and a high dose (0.8 g/kg) of the compound, at a volume of 0.2 ml per 10 g body weight. The positive control group was administered (ip) methadone (20 mg/kg) and the blank control group was given (ig) the same volume of normal saline. Forty-five minutes after administration, each mouse was given (ip) 0.6% acetic acid, 0.2 ml for each. The mice were then observed for writhing reaction, with abdominal contraction and hind limb extension or hip elevation regarded as positive. Times of writhing in 20 min were recorded starting from 5 min after acetic acid injection. The analgesic effect was evaluated by taking completely inhibiting writhing reaction induced by acetic acid as an indicator."}}, "note": "Where a name gives a salt, the structure may show the parent alone. Marks after values point to notes of the source that are not given here."}
{"smiles": "Clc1ccc2c(c1)C(c1ccccc1)=NCc1nncn1-2", "note": "[Estazolam, reference compound]", "values": [{"measurement": "Number of the mice showing disappearance of righting reflex", "setting": "[1]", "value": 18, "unit": "per group"}, {"measurement": "Number of spontaneous activities", "setting": "[2]; After administration (45 min), Estazolam 2 mg/kg", "value": "45.4 ± 34.43**^ΔΔ per 10 min"}, {"measurement": "Number of spontaneous activities", "setting": "[2]; Before administration, Estazolam group", "value": "136.6 ± 43.35", "unit": "per 10 min"}]}
{"smiles": "CN1CC[C@]23c4c5ccc(O)c4O[C@H]2[C@@H](O)C=C[C@H]3[C@H]1C5.Cl", "note": "[Morphine, Morphine hydrochloride, reference compound]", "values": [{"measurement": "Induced withdrawal symptom score", "setting": "[3]", "value": "76.9 ± 14.53"}, {"measurement": "Weight loss", "setting": "[4]", "value": "0.57 ± 0.25", "unit": "g"}, {"measurement": "Number of jumps", "setting": "[4]; 30 min", "value": "64.10 ± 15.29"}]}
{"smiles": "CCC(=O)C(CC(C)N(C)C)(c1ccccc1)c1ccccc1", "note": "(stereo not drawn) [methadone, Methadone hydrochloride, reference compound]", "values": [{"measurement": "Duration of mice staying in companion box", "setting": "[5]; After administration, methadone 20 mg/kg ig 3 days + morphine 9 mg/kg sc, 15 min observation", "value": "499.6 ± 123.26*^ΔΔ s"}, {"measurement": "Duration of mice staying in companion box", "setting": "[5]; Before administration (base line), methadone 20 mg/kg + morphine 9 mg/kg group", "value": "333.7 ± 114.95", "unit": "s"}, {"measurement": "Pain threshold", "setting": "[6]; 60 min", "value": "58.4 ± 9.05", "unit": "s"}, {"measurement": "Pain threshold", "setting": "[6]; 120 min", "value": "51.5 ± 10.11", "unit": "s"}, {"measurement": "Pain threshold before administration", "setting": "[6]; base line, methadone group", "value": "24.4 ± 5.72", "unit": "s"}, {"measurement": "Numbers of jumping reactions of mice (mice of n = 10)", "setting": "[7]; d 1", "value": 10}, {"measurement": "Numbers of jumping reactions of mice, percentage", "setting": "[7]; d 1", "value": 100, "unit": "%"}, {"measurement": "Weight change: body weights of mice before and after induced withdrawal", "setting": "[7]; d 1", "value": "0.22 ± 0.19", "unit": "g"}, {"measurement": "Numbers of jumping reactions of mice (mice of n = 10)", "setting": "[7]; d 3", "value": 10}, {"measurement": "Numbers of jumping reactions of mice, percentage", "setting": "[7]; d 3", "value": 100, "unit": "%"}, {"measurement": "Weight change: body weights of mice before and after induced withdrawal", "setting": "[7]; d 3", "value": "0.46 ± 0.23", "unit": "g"}, {"measurement": "Times of writhing", "setting": "[8]", "value": "8.7 ± 3.74"}]}
